{
  "source": "patent US7317038B2",
  "about": "“Nerve regeneration promoters containing semaphorin inhibitor as the active ingredient” (Dainippon Sumitomo Pharma Co., Ltd., priority 2000, dated 2008)",
  "key": {"[1]": {"system": "adult rat models for olfactory nerve axotomy", "assay": "In vivo nerve regeneration after olfactory nerve axotomy", "details": "for Positive section No. (which section from the vertex, average ± SE): HRP-positive glomerulus", "experimental": "Male Wister rats (6.5-week-old) were purchased from CHARLES RIVER JAPAN, INC. and bred under free feeding and water uptake in the dedicated breeding room. A sample solution was prepared by diluting SPF-3059-1 to lmg/ml with PBS and filled in an osmotic pressure pump (alzet 2004, ALZA co., USA). A pump filled with PBS was used as a control. The sample solution and the like were prepared on the day before the operation and the osmotic pressure pump was bathed in PBS and placed overnight at room temperature. Just before the operation, a L-cannula was connected to the one end of a silicon tube filled with the sample solution and the like, and the other end of the tube was connected to the pump. A rat was anesthetized with pentbarbital (50 mg/kg, intrapenitrially injected), and its head was fixed to the stereotaxic apparatus. The scalp was incised along the median and the cranium above the olfactory bulb was opened to expose the olfactory bulb (anterior part). In order to axotomize olfactory nerve, a knife (a razor was cut into 1.5 mm width) was inserted in between the olfactory bulb and the cribriform plate. The olfactory nerve which is projected on the upper olfactory bulb is axotomized by this handling. The L-cannula was fixed to the cranium-opening above the olfactory with surgical instant adhesive and dental cement so that the edge of cannula is located in the vicinity of the incision. The sample output was set to 6 μl (6 μg)/day. The pump was subcutaneously inserted in the dorsal neck and the incision was sutured. Then the animal was recovered.\nTwo and three weeks after the operation, the rat anesthetized with pentbarbital was laid on its back and injected with 100 μl of 1% WGA-HRP/PBS (TOYOBO) into the nasal cavity using a microsyringe. 24 hours after the HRP injection, the rat was further anesthetized with pentbarbital (50 mg/kg, intrapenitrially injected) and was thoracically incised. […]\nRegeneration of olfactory nerves was quantitatively assessed by observing in which horizontal section of the olfactory bulb from the vertex did HRP-positive glomerulus emerge. […]"}, "[2]": {"system": "spinal cord injury model adult rats", "assay": "In vivo nerve regeneration after transection of the spinal nerve (cerebral cortex-spinal cord tract)", "details": "rat; 0.6 μg/day for four consecutive weeks", "experimental": "Male Wister rats (10-week-old) were purchased from Charles River Japan, Inc. and bred under free feeding and water uptake in a dedicated breeding room. They were used in the experiment after about one week of pre-breeding. SPF-3059-1 was prepared to 0.1 mg/ml with PBS. PBS was used as a control. The agent was filled in an osmotic pressure pump (Alzet, model 2004, dosage for four weeks, flow rate 0.25 μl/hr). A cannula filled with the sample solution etc. was connected to the pump and pre-incubated in saline overnight at room temperature.\nA rat was intrapenitrially injected with pentbarbital (50 mg/kg). Skin and muscles in dorsal thoracic spinal cord region of the anesthetized rat were incised and the T8-T12 vertebras were exposed. Laminectomy was carried out for the T11 thoracic vertebra under the microscope. A pair of ophthalmologic scissors attached to the manipulator was punctured and inserted across the median line into the depth of 1.5 mm from the duramater surface, and the cerebral cortex-spinal cord pathway was incised and separated. The vertebra opening was filled with a spongel. Cannulation was performed from the T9 vertebra which was perforated with a surgical drill to expose the duramater. The part of the duramater, to which a cannula was to be inserted, was perforated with an injection needle and the silicon tube connected with the pump was inserted therein. […]"}},
  "data": [
    {"smiles": "CC(=O)c1c(C)c(C(=O)C2COc3cc(O)c(O)c(C(=O)O)c3C2=O)cc2c(=O)c3c(C(=O)O)c(O)c(O)cc3oc12", "note": "(stereo not shown) [SPF-3059-1]", "values": [
      {"measurement": "in vivo nerve-regeneration promoting action in olfactory nerve axotomy (in words)", "setting": "[1]", "result": "marked nerve-regeneration promoting action"},
      {"measurement": "Positive section No. (which section from the vertex, average ± SE)", "setting": "[1]; Week 2, 6 μg/day by osmotic pump near incision", "result": "8.3 ± 1.9"},
      {"measurement": "Positive section No. (which section from the vertex, average ± SE)", "setting": "[1]; Week 3, 6 μg/day by osmotic pump near incision", "result": "5.2 ± 1.9"},
      {"measurement": "nerve-regeneration promoting action after spinal nerve incision (DBA-positive fibers)", "setting": "[2]", "result": "has the nerve-regeneration promoting action"}
    ]}
  ]
}
